The results in this text go back to PubChem BioAssay (NCI).

SMILES strings stand for the structures. Several values for one entry are separate records, joined by “and”; a condition that tells them apart may be missing. Equal values may be shown once.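 Step 1: Grow cells in 96-well plates. Step 2: Expose to compound for 48 hours at 5 concentrations. Step 3: Interpolate endpoints linearly; if unreached, use highest concentration. GI50: concentration for 50% inhibition of growth. The concentration for full growth arrest is given as TGI.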

Among the test systems are HCC-2998 colon; RPMI-8226 leukemia; NCI-H23 lung; MOLT-4 leukemia; MCF7 breast; MALME-3M melanoma; BT-549 breast; U251 CNS.
What all share (assay): NCI-60 cell line screen, 48 h

As for `O=S(=O)(NCCNc1nccc(-c2c(-c3ccc(F)c(O)c3)nc3sccn23)n1)c1ccc(F)cc1`, the GI50 in the test on HCC-2998 colon is 4.45 µM; in the test on RPMI-8226 leukemia, 1.78 µM; with NCI-H23 lung, 4.07 µM; in the test with MOLT-4 leukemia, 2.71 µM; in the test on MCF7 breast it was 2.17 µM; with MALME-3M melanoma it was 0.232 µM. Further, the GI50 is 2.99 µM in the test on BT-549 breast and 4.75 µM in the test with U251 CNS. Further, the TGI with HCC-2998 colon was found to be 17.2 µM; in the test on RPMI-8226 leukemia, 4.24 µM; in the test on NCI-H23 lung, 22.4 µM; with MOLT-4 leukemia it was 12.9 µM; with MCF7 breast, 12.2 µM; in the test with MALME-3M melanoma, 1.37 µM. Besides, the TGI was 23.4 µM with BT-549 breast and greater than 100 µM in the test on U251 CNS.
Take `Cn1c(C(=O)c2ccncc2)cc2ccccc21`: the GI50 with HCC-2998 colon was greater than 100 µM; in the test on RPMI-8226 leukemia, 48.8 µM; in the test with NCI-H23 lung, greater than 100 µM; with MOLT-4 leukemia it was 54.4 µM; in the test with MCF7 breast it was greater than 100 µM; in the test with MALME-3M melanoma, greater than 100 µM. In addition, the GI50 with BT-549 breast and in the test with U251 CNS was greater than 100 µM in each case. Also, the TGI in the test on HCC-2998 colon, in the test with RPMI-8226 leukemia, with NCI-H23 lung, in the test on MOLT-4 leukemia, in the test on MCF7 breast and in the test on MALME-3M melanoma was greater than 100 µM in each case. Besides, the TGI in the test on BT-549 breast and in the test with U251 CNS was greater than 100 µM throughout.
`Cc1[nH]nc(C(F)(F)F)c1N=NN(C)C`: the TGI was found to be 31.5 µM with HCC-2998 colon; 5.15 µM with RPMI-8226 leukemia; 21.9 µM in the test with NCI-H23 lung; 5.02 µM in the test on MOLT-4 leukemia; 14.6 µM in the test with MCF7 breast; 38.3 µM with MALME-3M melanoma. Further, the TGI with BT-549 breast was 24.9 µM; in the test with U251 CNS, 36.5 µM.
As for `O=C1c2ccccc2-[n+]2ccc3c([nH]c4ccccc43)c21`, the TGI with HCC-2998 colon turned out to be 0.484 µM; in the test on RPMI-8226 leukemia, 0.468 µM; with NCI-H23 lung, 2.76 µM; in the test with MOLT-4 leukemia it was 0.613 µM; in the test with MCF7 breast, 0.834 µM; in the test on MALME-3M melanoma, 0.181 µM. Also, the TGI with BT-549 breast came to 4.92 µM; with U251 CNS, 1.47 µM.
For `COc1ccc(/C=C/C(=O)/C=C/c2cc3ccccc3[nH]c2=O)cc1`, the GI50 in the test on HCC-2998 colon is 2.19 µM; with RPMI-8226 leukemia, 1.77 µM; in the test on NCI-H23 lung, 4.31 µM; in the test on MOLT-4 leukemia, 3.2 µM; in the test on MCF7 breast it was 2.11 µM; with MALME-3M melanoma, 9.17 µM. The results for the GI50 in the test on BT-549 breast and in the test on U251 CNS were 2.25 µM and 1.81 µM, respectively. Also, the TGI is 4.13 µM in the test with HCC-2998 colon; 5.02 µM with RPMI-8226 leukemia; 19.8 µM in the test with NCI-H23 lung; 9.24 µM with MOLT-4 leukemia; 11.1 µM in the test on MCF7 breast; 35.6 µM in the test on MALME-3M melanoma. The TGI stood at 6.19 µM in the test with BT-549 breast and 3.73 µM in the test on U251 CNS.
On to `CC1CCC2(NC1)OC1CC3C4CC=C5CC(O)CCC5(C)C4CCC3(C)C1C2C` (stereo unspecified), for which the GI50 was 31.7 µM and 15.2 µM in the test with HCC-2998 colon; 34.1 µM and 13.5 µM in the test on MALME-3M melanoma; 23.7 µM and 4.92 µM in the test on U251 CNS. The TGI in the test on HCC-2998 colon was > 100 µM and 56 µM; in the test on RPMI-8226 leukemia, 93.3 µM and 70.2 µM; in the test on NCI-H23 lung, greater than 100 µM; in the test with MOLT-4 leukemia, 55.5 µM and 59.5 µM; in the test with MCF7 breast, greater than 100 µM; in the test on MALME-3M melanoma, > 100 µM and 34.3 µM. In addition, the TGI in the test on BT-549 breast was greater than 100 µM; in the test with U251 CNS, 64.7 µM and 23.5 µM.
Regarding `Cc1ncc(C(=O)Nc2ccc(CN3CCN(C)CC3)c(C(F)(F)F)c2)cc1C#Cc1cnc2cccnn12`, the GI50 in the test on HCC-2998 colon is 0.446 µM; with RPMI-8226 leukemia, 0.145 µM; in the test with NCI-H23 lung, 0.221 µM; with MOLT-4 leukemia, 0.156 µM; with MCF7 breast, 0.136 µM; with MALME-3M melanoma it was 0.0895 µM. For the same molecule, the GI50 in the test on BT-549 breast was 1.23 µM; in the test with U251 CNS it was 0.727 µM. Besides, the TGI came to 4.28 µM with HCC-2998 colon; 1.29 µM with RPMI-8226 leukemia; 1.01 µM in the test on NCI-H23 lung; 5.32 µM with MOLT-4 leukemia; 0.663 µM in the test with MCF7 breast; 0.355 µM in the test with MALME-3M melanoma. In addition, the TGI was found to be 3.72 µM in the test on BT-549 breast and 2.6 µM in the test with U251 CNS.
In the case of `O=C(NOC[C@H](O)CO)c1ccc(F)c(F)c1Nc1ccc(I)cc1F`, the TGI is 2.24 µM in the test with HCC-2998 colon; greater than 100 µM in the test on RPMI-8226 leukemia; greater than 100 µM in the test with NCI-H23 lung; greater than 100 µM in the test on MOLT-4 leukemia; greater than 100 µM in the test on MCF7 breast; < 0.01 µM and 0.00323 µM in the test with MALME-3M melanoma. The results for the TGI with BT-549 breast and with U251 CNS were greater than 31.4 µM and greater than 100 µM, respectively. In addition, the GI50 was 35.9 µM and > 10 µM in the test on RPMI-8226 leukemia; 0.0188 µM and 0.0537 µM with NCI-H23 lung; 57.9 µM and > 10 µM with MOLT-4 leukemia; greater than 76.5 µM in the test on MCF7 breast; less than 0.01 µM with MALME-3M melanoma; 10.8 µM and > 10 µM with BT-549 breast. Further, in the test on U251 CNS, the GI50 is 1.05 µM and 0.662 µM.
For the molecule `COc1cc(F)c(F)c(Nc2ccc(I)cc2F)c1NS(=O)(=O)C1(C[C@H](O)CO)CC1`, the GI50 was 0.0206 µM in the test with HCC-2998 colon; 2.66 µM in the test on RPMI-8226 leukemia; 0.283 µM in the test with NCI-H23 lung; greater than 6.02 µM with MOLT-4 leukemia; greater than 5.31 µM in the test with MCF7 breast; 0.0198 µM with MALME-3M melanoma. The figures for the GI50 in the test on BT-549 breast and with U251 CNS were greater than 5.26 µM and 2.09 µM, respectively. The TGI with HCC-2998 colon is greater than 4.24 µM; in the test on RPMI-8226 leukemia, greater than 10 µM; with NCI-H23 lung, greater than 10 µM; in the test on MOLT-4 leukemia, greater than 10 µM; with MCF7 breast, greater than 10 µM; in the test with MALME-3M melanoma, 0.22 µM. For the same molecule, the TGI in the test on BT-549 breast and with U251 CNS was greater than 10 µM each time.
As for `CCOC(=O)c1cc2cc3c4c(c2oc1=O)CCCN4CCC3`, the TGI was greater than 100 µM in the test on HCC-2998 colon; 49.3 µM with RPMI-8226 leukemia; greater than 100 µM with NCI-H23 lung; 62.9 µM in the test with MOLT-4 leukemia; 56.3 µM in the test on MCF7 breast; greater than 100 µM in the test with MALME-3M melanoma. For the same molecule, the TGI with BT-549 breast and with U251 CNS was greater than 100 µM throughout.
For `COc1cc2ncn(-c3cc(OCc4ccccc4C(F)(F)F)c(C(=O)N(C)C)s3)c2cc1OC`, the GI50 with HCC-2998 colon, in the test with RPMI-8226 leukemia, in the test on NCI-H23 lung, in the test with MOLT-4 leukemia, in the test on MCF7 breast and with MALME-3M melanoma was greater than 25 µM throughout. Besides, the GI50 is greater than 21.9 µM with BT-549 breast and greater than 25 µM in the test on U251 CNS. In addition, the TGI in the test on HCC-2998 colon, with RPMI-8226 leukemia, in the test with NCI-H23 lung, with MOLT-4 leukemia, with MCF7 breast and with MALME-3M melanoma was greater than 25 µM in each case. Also, the TGI in the test with BT-549 breast and in the test on U251 CNS was greater than 25 µM in each case.
